Results reported in PMC8243516, “Inhibition of lysosomal phospholipase A2 predicts drug-induced phospholipidosis” (Journal of Lipid Research, 2021).
“And” between values parts separate entries of the source, which are not always exact repeats. Equal values may be shown once. Read-outs that look alike come from different tables or passages of the source.

Key:
MDCK cells = assay: Screening phospholipidosis assay (LipidTOX Red / NucBlue Live fluorescence ratio); conditions: LipidTOX Red to NucBlue Live fluorescence ratio, 24 h, 15 μM
LPLA2 = target: T1, LPLA2 (Mus musculus, UniProt Q8VEB4); assay: LPLA2 thermal stability measurement (SYPRO Orange Tm); assay type: binding
T1 construct: purchased Proteos Inc. (Kalamazoo, MI)
T1 sequence (Q8VEB4 34-412): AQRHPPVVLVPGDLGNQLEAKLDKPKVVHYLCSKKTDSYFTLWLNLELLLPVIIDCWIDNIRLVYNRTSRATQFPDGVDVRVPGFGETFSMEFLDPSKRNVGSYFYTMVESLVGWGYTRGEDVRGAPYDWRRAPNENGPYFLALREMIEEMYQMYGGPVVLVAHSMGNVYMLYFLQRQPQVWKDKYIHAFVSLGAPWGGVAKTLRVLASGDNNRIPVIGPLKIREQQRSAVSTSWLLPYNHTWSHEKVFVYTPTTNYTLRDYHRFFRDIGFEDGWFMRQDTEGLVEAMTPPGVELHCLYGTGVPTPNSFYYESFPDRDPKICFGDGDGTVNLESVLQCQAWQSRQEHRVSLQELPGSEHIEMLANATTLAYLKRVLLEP

phospholipidosis = phospholipidosis reported in vitro; Refs of Table 1; cited from earlier work
[1] = target: T2, recombinant mouse LPLA2 (PLA2G15) (Mus musculus, UniProt Q8VEB4); assay: Transacylase activity of LPLA2 (1-O-acyl-N-acetylsphingosine synthase, cell-free liposome assay); assay type: biochemical; conditions: for IC50: read-out: LPLA2 IC50; for LPLA2 inhibition (in words): acyl transferase activity
T2 construct: purchased Proteos Inc. (Kalamazoo, MI)
T2 sequence (Q8VEB4 34-412): T1 sequence (Q8VEB4 34-412)

[2] = cited from earlier work
[3] = 1-O-acyl N-acetylsphingosine synthase activity, pH 4.5, DOPC/sulfatide liposomes
[4] = ref Pubchem and chEMBL databases
[5] = ref Pubchem and chEMBL database
[6] = LPLA2 dependent 1-O-acyl N-acetylsphingosine synthase activity

| SMILES | Ratio (15 μM) (MDCK cells) | (ΔTm)c-(ΔTm)d, difference in melting temperature of LPLA2 alone or in the presence of drug (LPLA2) | In Vitro PLD (phospholipidosis) | IC50 [1, 3] | (ΔTm)c-(ΔTm)d, difference in melting temperature of LPLA2 alone or in the presence of drug (LPLA2; N=3 ± SD) | pKa (basic) [2, 4] | pKa (basic) [2, 5] | LPLA2 inhibition (in words) [1] | IC50 [1, 6] |
| --- | --- | --- | --- | --- | --- | --- | --- | --- | --- |
| Cl.NCCc1ccc(O)c(O)c1 [3-Hydroxytyramine hydrochloride] | 0.91 | 0.75 ± 0.0 °C | – | – | – | – | – | – | – |
| CC1=C(/C=C/C(C)=C/C=C/C(C)=C/CO)C(C)(C)CCC1 [Retinol, (2E,4E,6E,8E)-3,7-dimethyl-9-(2,6,6-trimethylcyclohex-1-en-1-yl)nona-2,4,6,8-tetraen-1-ol] | – | – | Yes | 52.5 µM | 0.81 ± 0.3 °C | -2.2 | – | – | – |
| CCC(C)(C)c1ccc(CC(C)CN2C[C@@H](C)O[C@@H](C)C2)cc1 (stereo partly drawn) [Amorolfine, 2R,6S-2,6-dimethyl-4-(2-{[4-(2-methylbutan-2-yl)phenyl]methyl}propyl)morpholine] | – | – | Yes | 41.5 µM | -0.30 ± 0.1 °C | 8.49 | – | – | – |
| O=C(COc1ccc(Cl)cc1)N1CCN(Cc2ccc3c(c2)OCO3)CC1 [Fipexide, 1-(2-[4-chlorophenoxy]acetyl)-4-(3,4-methylenedioxybenzyl)piperazine] | – | – | Yes | 17.2 µM | -0.17 ± 0.0 °C | 6.09 | – | – | – |
| C[C@]12C[C@H](O)[C@H]3[C@@H](CCC4=CC(=O)CC[C@@]43C)[C@@H]1CC[C@@H]2C(=O)CO [Corticosterone, (1S,2R,10S,11S,14S,15S,17S)-17-hydroxy-14-(2-hydroxyacetyl)-2,15-dimethyltetracyclo[8.7.0.0^2,^7.0^11,^15]heptadec-6-en-5-one] | – | – | Yes | 163 µM | 0 °C | -0.26 | – | – | – |
| C=CCc1ccccc1OCC(O)CNC(C)C (stereo not shown) [Alprenolol, 1-(o-allylphenoxy)-3-(isopropylamino)-2-propanol] | – | – | Yes | 173 µM | -1.00 ± 0.1 °C | 9.67 | – | – | – |
| COC(=O)C1=C(C)NC(C)=C(C(=O)OC(C)(C)CN(C)CCC(c2ccccc2)c2ccccc2)C1c1cccc([N+](=O)[O-])c1 (stereo not shown) [Lercanidipine, 3-{1-[(3,3-diphenylpropyl)(methyl)amino]-2-methylpropan-2-yl} 5-methyl 2,6-dimethyl-4-(3-nitrophenyl)-1,4-dihydropyridine-3,5-dicarboxylate] | – | – | Yes | 37.2 µM | 0.21 ± 0.3 °C | 9.36 | – | – | – |
| c1ccc2c(c1)CCc1ccccc1C2 [Dibenzosuberane, 10,11-dihydro-5H-dibenzo [a, d] cycloheptene-833-48-7] | – | – | Yes | 346 µM | -1.94 ± 0.0 °C | 10 | – | – | – |
| CC(COc1ccccc1)NC(C)C(O)c1ccc(O)cc1 (stereo not shown) [Isoxsuprine] | 1.22 | – | – | – | 1.1 ± 0.0 °C | – | 9 | – | – |
| COc1ccc(CN(CCN(C)C)c2ccccn2)cc1 [Pyrilamine, N-[2-(dimethylamino)ethyl]-N-[(4-methoxyphenyl)methyl]pyridin-2-amine] | – | – | Yes | 214 µM | 0 °C | 8.76 | – | – | – |
| Cc1nc2ccccn2c(=O)c1CCN1CCC(C(=O)c2ccc(F)cc2)CC1 [Pirenperone, 3-[2-[4-(4-Fluorobenzoyl)-1-piperidinyl]ethyl]-2-methyl-4H-pyrido-[1,2-a] pyrimidin-4-one] | – | – | Yes | 233 µM | 0.79 ± 0.0 °C and 0.79 ± 0.1 °C | 8.02 | – | – | – |
| OC(CCN1CCCCC1)(c1ccccc1)c1ccccc1 [Pridinol, 1,1-diphenyl-3-(piperidin-1-yl)propan-1-ol] | – | – | Yes | 285 µM | 0 °C | 9.34 | – | – | – |
| CC(=O)[C@H]1CC[C@H]2[C@@H]3CCC4=CC(=O)CC[C@]4(C)[C@H]3CC[C@]12C [Progesterone, (1S,3aS,3bS,9aR,9bS,11aS)-1-acetyl-9a,11a-dimethyl-1H,2H,3H, 3aH,3bH,4H,5H, 7H,8H,9H,9 aH,9bH, 10H,11H,11aH-cyclopenta [a] phenanthren-7-one] | – | – | Yes | 10.5 µM | 0.61 ± 0.1 °C | -4.8 | – | – | – |
| CCOc1cc(CC(=O)NC(CC(C)C)c2ccccc2N2CCCCC2)ccc1C(=O)O (stereo not shown) [Repaglinide, 2-ethoxy-4-[2-({3-methyl-1-[2-(1-piperidinyl)phenyl]butyl}amino)-2-oxoethyl]benzoic acid] | – | – | Yes | 86.5 µM | -0.84 ± 1.5 °C | 4.28 | – | – | – |
| CCOC(=O)c1cncn1[C@H](C)c1ccccc1 [Etomidate, ethyl 1-[(1R)-1-phenylethyl]-1H-imidazole-5-carboxylate] | – | – | Yes | 1150 µM | -0.76 ± 0.3 °C | 4.54 | – | – | – |
| CCN(CC)CCOC(=O)C(c1ccccc1)C1CCCCC1 (stereo not shown) [Drofenine, hexahydroadiphenine] | – | – | Yes | 7.29 µM | 1.50 ± 0.1 °C | 9.21 | – | – | – |
| NCCc1cc(O)c(O)cc1O [6-Hydroxydopamine] | 0.93 | – | – | – | -0.14 ± 0.1 °C | – | – | – | – |
| CCCOc1ccc(C(=O)OCCN(CC)CC)cc1N [Proparacaine, 2-(diethylamino)ethyl 3-amino-4-propoxybenzoate] | – | – | Yes | 2470 µM | 0 °C | 8.56 | – | millimolar concentrations | – |
| CC(C)NCC(O)COc1ccc(CCOCC2CC2)cc1 (stereo not shown) [Betaxolol, 1-{4-[2-(cyclopropylmethoxy)ethyl]phenoxy}-3-[(propan-2-yl)amino]propan-2-ol] | – | – | Yes | – | -1.29 ± 0.9 °C | 9.67 | – | no inhibitory activity | – |
| CN1CCc2c(c3ccccc3n2Cc2ccccc2)C1 [Mebhydrolin] | 2.54 | – | – | – | – | – | 6.7 | – | 146 µM |
| O=C1NC(=O)C(c2ccccc2)(c2ccccc2)N1 [Phenytoin] | 0.38 | – | – | – | 0.13 ± 0.1 °C | – | – | – | 60 µM |
| CN(C)CCC(c1ccc(Cl)cc1)c1ccccn1 (stereo not shown) [Chlorpheniramine, [3-(4-chlorophenyl)-3-(pyridin-2-yl)propyl] dimethylamine] | – | – | Yes | 147 µM | 0.34 ± 0.0 °C | 9.47 | – | – | – |
| CN(Cc1cc(Br)cc(Br)c1N)C1CCCCC1.Cl [Bromhexine, 2-amino-3,5-dibromo-N-cyclohexyl-N-methylbenzylamine hydrochloride] | – | – | Yes | 30.8 µM | 1.26 ± 0.2 °C | 9.32 | – | – | – |
| CC(CN(C)C)CN1c2ccccc2CCc2ccccc21 (stereo not shown) [Trimipramine, (3-{2-azatricyclo[9.4.0.0³,^8]pentadeca-1(15),3,5,7,11, 13-hexaen-2-yl}-2-methylpropyl)dimethylamine] | – | – | Yes | 268 µM | 0.56 ± 0.0 °C | 9.42 | – | – | – |
| OC[C@@H](O)[C@@H](O)[C@H](O)[C@H](O)CO [Mannitol, (2R,3R,4R,5R)-hexane-1,2,3,4,5,6-hexol] | – | – | Yes | 160 µM | 1.0 ± 0.0 °C | 12.3 | – | – | – |
| CCCCNc1ccc(C(=O)OCCN(C)C)cc1 [Tetracaine, 2-(dimethylamino)ethyl 4-(butylamino)benzoate] | – | – | Yes | 333 µM | -1.20 ± 0.5 °C | 8.42 | – | – | – |
| O=c1[nH]c2ccccc2n1C1CCN(CCCC(c2ccc(F)cc2)c2ccc(F)cc2)CC1 [Pimozide, 1-{1-[4,4-bis(4-fluorophenyl)butyl]piperidin-4-yl}-2,3-dihydro-1H-1,3-benzodiazol-2-one] | – | 0.26 ± 0.0 °C | Yes | 10.6 µM | – | 8.38 | – | – | – |
| CN(C)CC/C=C1/c2ccccc2Sc2ccc(Cl)cc21 [Chlorprothixene] | – | – | Yes | 7.78 µM | -2.0 ± 0.1 °C | 9.76 | – | – | – |
